Target: T1, Broad substrate specificity ATP-binding cassette transporter ABCG2 (Homo sapiens, UniProt Q9UNQ0)
T1 sequence (Q9UNQ0 whole entry): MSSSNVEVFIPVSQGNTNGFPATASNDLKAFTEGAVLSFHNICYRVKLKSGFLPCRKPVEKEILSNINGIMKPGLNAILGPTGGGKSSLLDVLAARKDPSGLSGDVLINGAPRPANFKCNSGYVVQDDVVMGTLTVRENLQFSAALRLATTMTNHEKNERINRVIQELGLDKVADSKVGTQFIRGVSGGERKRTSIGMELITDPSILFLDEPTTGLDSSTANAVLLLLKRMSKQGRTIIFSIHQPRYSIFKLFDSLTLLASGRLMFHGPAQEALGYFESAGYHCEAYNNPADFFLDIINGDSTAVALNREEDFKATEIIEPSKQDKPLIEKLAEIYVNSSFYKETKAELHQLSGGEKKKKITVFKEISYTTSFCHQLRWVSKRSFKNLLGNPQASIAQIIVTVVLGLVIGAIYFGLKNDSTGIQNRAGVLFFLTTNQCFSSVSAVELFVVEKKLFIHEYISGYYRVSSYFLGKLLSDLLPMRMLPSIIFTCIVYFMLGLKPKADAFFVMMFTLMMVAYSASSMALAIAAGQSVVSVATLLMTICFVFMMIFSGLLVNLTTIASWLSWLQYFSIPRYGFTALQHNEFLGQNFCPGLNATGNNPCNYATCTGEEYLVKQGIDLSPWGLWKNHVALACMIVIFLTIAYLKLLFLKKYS
Test: Inhibition of ABCG2 (unknown origin) expressed in HEK293 cells assessed as increase in mitoxantrone accumulation incubated for 30 mins by flow cytometric method
Assay type: cell-based

SMILES	EC50
COc1ccc2[nH]cc(CCNC(=O)c3cc(=O)c4c(OCc5cc(Br)cc(Br)c5)cccc4o3)c2c1	97 nM
COc1ccc2[nH]cc(CCNC(=O)c3cc(=O)c4c(OCc5ccc(Br)cc5Br)cccc4o3)c2c1	46 nM

Source: ChEMBL document CHEMBL4406873, “Optimization of the chromone scaffold through QSAR and docking studies: Identification of potent inhibitors of ABCG2” (Eur J Med Chem, 2019)
